# Measured values from US7727972B2, “Methods for determining absorption of cobalamin or analogues thereof” (DrugTech Corporation, priority 2004, dated 2010).
# Tested on: Anti haptocorrin antibodies (ELISA)
# Assay: Cross-reactivity of the haptocorrin ELISA towards other cobalamin binding proteins
# Parameters: species or system rabbit
# Details: 60 nmol/L in the assay mixture
# Description: Antibodies. Anti haptocorrin was produced by DakoCytomation A/S, Denmark by immunising rabbits with 200 μg pure haptocorrin produced as previously described (12) and deglycosylated as described above. The gamma globulin fraction was pre-pared (13) from serum obtained after 7 immunisations.
# ELISA. The principle of the ELISA assay used was an immobilised capture antibody (0.1 ug gamma globulin/well, rabbit nr F7773) catching the analyte and a biotinylated detection antibody (gamma globulin 3 ug/L, rabbit nr 7772) visualised by avidin/Horse Radish Peroxidase (HRP). Colour development by addition of 3,3′,5,5′-tetramethyl-benzidin was proportional to the concentration of analyte. The assay procedure was as previously described for transcobalamin (14, 15). In brief, calibrator, sample or control (100 μL, final dilution 1:30) was incubated for 1 hour at room temperature prior to washing and incubation for 30 min with the biotinylated detection antibody. The attached biotinylated antibody was detected employing avidin/HRP and colour development was determined by measuring the absorbance at 420 nm and correcting for the absorbance at 620 nm. The calibrator employed was deglycosylated pure human haptocorrin. All samples were run in true duplicates, where deglycosylation was performed on two independent samples.
# Samples. […]
substance,measurement,value
intrinsic factor: cobalamin binding protein; pure IF dissolved in phosphate buffer 0.1 M containing albumin 0.1%,cross-reactivity in haptocorrin ELISA,No cross-reactivity
